Source: ChEMBL document CHEMBL4342527, “Discovery of Novel Fungal Lanosterol 14α-Demethylase (CYP51)/Histone Deacetylase Dual Inhibitors to Treat Azole-Resistant Candidiasis” (J Med Chem, 2020)
Converted amounts (≈) assume the structure as drawn. The source made the active and inactive calls. No cut-off for these calls is given here.

Columns and labels:
[1] = system: Candida albicans; assay: Antifungal activity against azole-sensitive Candida albicans SC5314 after 48 hrs by spectrophotometry-based serial microdilution method; assay type: functional; conditions: Candida albicans, SC5314, 48 h; read-out: MIC80
[2] = system: Candida albicans; assay: Antifungal activity against azole-resistant Candida albicans 0304103 after 48 hrs by spectrophotometry-based serial microdilution method; assay type: functional; conditions: Candida albicans, 0304103, 48 h
[3] = system: Candida albicans; assay: Antifungal activity against azole-resistant Candida albicans 7781 after 48 hrs by spectrophotometry-based serial microdilution method; assay type: functional; conditions: Candida albicans, 7781, 48 h
[4] = system: Candida albicans; assay: Antifungal activity against azole-resistant Candida albicans 4108 after 48 hrs by spectrophotometry-based serial microdilution method; assay type: functional; conditions: Candida albicans, 4108, 48 h
[5] = system: Candida tropicalis; assay: Antifungal activity against azole-resistant Candida tropicalis 5008 after 48 hrs by spectrophotometry-based serial microdilution method; assay type: functional; conditions: Candida tropicalis, 5008, 48 h
[6] = system: Cryptococcus neoformans; assay: Antifungal activity against azole-sensitive Cryptococcus neoformans H99 after 72 hrs by spectrophotometry-based serial microdilution method; assay type: functional, var grubii H99; conditions: Cryptococcus neoformans, var grubii H99 , 72 h; read-out: MIC80
[7] = target: T1, Lanosterol 14-alpha demethylase (Candida albicans (strain SC5314 / ATCC MYA-2876) (Yeast), UniProt P10613); assay: Inhibition of CYP51 in azole-resistant Candida albicans 0304103 assessed as unknown sterol 1 level at 0.5 ug/ml after 24 hrs by GC-MS analysis (reference value: 2.91%); design: scale not given: the % may be the effect or the level left
[8] = target: T1, Lanosterol 14-alpha demethylase; assay: Inhibition of CYP51 in azole-resistant Candida albicans 0304103 assessed as ergosterol content at 0.5 ug/ml after 24 hrs by GC-MS analysis (reference value: 75.21%); design: scale not given: the % may be the effect or the level left
[9] = target: T1, Lanosterol 14-alpha demethylase; assay: Inhibition of CYP51 in azole-resistant Candida albicans 0304103 assessed as unknown sterol 2 level at 0.5 ug/ml after 24 hrs by GC-MS analysis (reference value: 6.77%); design: scale not given: the % may be the effect or the level left
[10] = target: T1, Lanosterol 14-alpha demethylase; assay: Inhibition of CYP51 in azole-resistant Candida albicans 0304103 assessed as unknown sterol 3 level at 0.5 ug/ml after 24 hrs by GC-MS analysis (reference value: 4.78%); design: scale not given: the % may be the effect or the level left
[11] = target: T1, Lanosterol 14-alpha demethylase; assay: Inhibition of CYP51 in azole-resistant Candida albicans 0304103 assessed as unknown sterol 4 level at 0.5 ug/ml after 24 hrs by GC-MS analysis (reference value: 1.29%); design: scale not given: the % may be the effect or the level left
[12] = target: T1, Lanosterol 14-alpha demethylase; assay: Inhibition of CYP51 in azole-resistant Candida albicans 0304103 assessed as lanosterol level at 0.5 ug/ml after 24 hrs by GC-MS analysis (reference value: 4.15%); design: scale not given: the % may be the effect or the level left
[13] = target: T1, Lanosterol 14-alpha demethylase; assay: Inhibition of CYP51 in azole-resistant Candida albicans 0304103 assessed as unknown sterol 5 level at 0.5 ug/ml after 24 hrs by GC-MS analysis (reference value: 4.87%); design: scale not given: the % may be the effect or the level left
[14] = target: Histone deacetylase; assay: Inhibition of HDAC in HUVEC using Boc-Lys(Ac)-AMC as substrate preincubated for 12 hrs followed by substrate addition and measured after 4 hrs by fluorimetry; assay type: ADME, cell-based, Homo sapiens
[15] = target: T1, Lanosterol 14-alpha demethylase; assay: Inhibition of CYP51 in azole-resistant Candida albicans 0304103 assessed as reduction in ERG11 gene expression at 32 ug/ml after 16 hrs by SYBR Green-1 dye based RT-PCR analysis; design: species or system 304103
[16] = system: Candida albicans; assay: Inhibition of HDAC in azole-resistant Candida albicans 0304103 assessed as reduction in CDR1 gene expression at 32 ug/ml after 16 hrs by SYBR Green-1 dye based RT-PCR analysis; conditions: 304103
[17] = system: Candida albicans; assay: Inhibition of HDAC in azole-resistant Candida albicans 0304103 assessed as reduction in CDR2 gene expression at 32 ug/ml after 16 hrs by SYBR Green-1 dye based RT-PCR analysis; conditions: 304103
[18] = system: Candida albicans; assay: Inhibition of HDAC in azole-resistant Candida albicans 0304103 assessed as reduction in MDR1 gene expression at 32 ug/ml after 16 hrs by SYBR Green-1 dye based RT-PCR analysis; conditions: 304103
[19] = system: Candida albicans; assay: Antifungal activity against Candida albicans 0304103 assessed as effect on filamentation up to 32 ug/ml after 4 hrs by differential interference contrast microscopic analysis; assay type: functional, organism-based
[20] = system: Candida albicans; assay: Inhibition of biofilm formation in azole resistant Candida albicans 0304103 at 64 ug/ml after 24 hrs by XTT assay relative to control; assay type: functional; conditions: Candida albicans, 0304103, 24 h
[21] = system: Candida albicans; conditions: 0304103, 32 ug/ml
Description: Inhibition of HDAC in azole-resistant Candida albicans 0304103 assessed as decrease in rhodamine 6G efflux at 32 ug/ml after 16 hrs by fluorimetry

T1 sequence (P10613 whole entry): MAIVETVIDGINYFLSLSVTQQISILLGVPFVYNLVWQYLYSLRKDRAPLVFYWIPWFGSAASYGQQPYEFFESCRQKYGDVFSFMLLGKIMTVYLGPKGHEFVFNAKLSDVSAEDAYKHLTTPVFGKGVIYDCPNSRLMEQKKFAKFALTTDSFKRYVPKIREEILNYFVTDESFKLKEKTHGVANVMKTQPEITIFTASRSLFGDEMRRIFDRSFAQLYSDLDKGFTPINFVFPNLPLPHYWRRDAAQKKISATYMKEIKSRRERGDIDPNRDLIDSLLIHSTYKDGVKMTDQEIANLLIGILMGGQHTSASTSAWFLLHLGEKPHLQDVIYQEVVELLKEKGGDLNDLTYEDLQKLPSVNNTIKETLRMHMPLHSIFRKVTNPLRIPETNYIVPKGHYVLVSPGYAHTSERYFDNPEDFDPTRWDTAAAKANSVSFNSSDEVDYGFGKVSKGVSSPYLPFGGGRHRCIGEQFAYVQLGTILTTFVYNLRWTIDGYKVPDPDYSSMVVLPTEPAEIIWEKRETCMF

Compound: OC(Cn1cncn1)(Cn1cncn1)c1ccc(F)cc1F [FLUCONAZOLE]
- MIC80 [1]: 0.5 µg/mL (≈ 1.63 µM)
- MIC80 [2]: > 64 µg/mL
- MIC80 [3]: > 64 µg/mL
- MIC80 [4]: > 64 µg/mL
- MIC80 [5]: > 64 µg/mL
- MIC80 [6]: 2 µg/mL (≈ 6.53 µM)
- Activity [7]: 3.06%
- Activity [8]: 74.97%
- Activity [9]: 7.5%
- Activity [10]: 4.7%
- Activity [11]: 1.17%
- Activity [12]: 3.94%
- Activity [13]: 4.66%
- IC50 [14]: > 40 µM
- inhibition (INH) [15]: Not Active
- inhibition [16]: inactive
- inhibition [17]: inactive
- inhibition [18]: inactive
- Activity [19]: inactive
- inhibition at 64 µg/mL [20]: 22.9%
- inhibition [21]: inactive
